Test results taken from patent US7258999B2, “PTH responsive gene” (Wyeth, priority 2002, dated 2007).

System: PAIGB expression
Assay: RADE differential display of rat tibia RNA after PTH administration
Type: in vivo
Details: eight days
Method: Total RNA was isolated and each RNA sample was then treated with 20 units of DNAse (Ambion, Austin, Tex.). After RNA cleaning, samples were split into three reverse transcription (RT) reactions. Each RT reaction contained 4 μg RNA, 1000 units SuperScript II RT (Gibco), 100 μM dNTPs and 0.2 μM anchor primer in a final volume of 100 μl. Anchor primers had the sequence (5′→3′) T11A, T11C, or T11G. For differential display each cDNA sample was subjected, in duplicate, to 80 PCR reactions using the appropriate anchor primer and one of 80 arbitrary primers (HAPs 1-80; Genhunter). PCR reactions contained in a final volume of 20 ul, 20 ng cDNA, 2 μM dNTPs, 0.2 μM anchor primer, 0.2 μM arbitrary primer, 1 unit Taq polymerase (Applied Biosystems (AB), Foster City, Calif.), and 2.5 μCi [α-^33P]dATP (2000 Ci/mmole). PCR conditions were as follows: 1 cycle of 92° C./2′, 40 cycles of [92° C./15″, 40° C./2′, 72° C./30″], and 1 cycle of 72° C./5′. PCR samples were then loaded onto a 50 cm 6% sequencing gel and run at 200 volts constant. Differentially expressed bands were excised from the dried gel. […]
Female Wister rats 4 weeks of age were treated with vehicle (saline) and human PTH (1-34) at a dose of 40 μg/kg of body weight for eight days. […] Three weeks post OVX total BMD was measured to determine if osteopenia was established. […]

Question: What does the source list for human PTH (1-34)?
Answer: PAIGB expression in bone RNA (RADE) (continuous administration, 40 μg/kg/day): did not induce any changes; PAIGB expression in bone RNA (RADE) (intermittent injection, 40 μg/kg): induced
